Experimental data: ChEMBL document CHEMBL5360534, “Synthetic α-glucosidase inhibitors as promising anti-diabetic agents: Recent developments and future challenges” (Eur J Med Chem, 2023)

Assays:
Alpha-glucosidase = Alpha-glucosidase (Saccharomyces cerevisiae S288c, UniProt P53341+P38158+P07265); experiment: Inhibition of Saccharomyces cerevisiae alpha-glucosidase using p-nitrophenyl-alpha-D-glucopyranoside as substrate incubated for 15 mins by UV-visible spectrophotometric analysis; type: protein assay
[1] = Inhibition of alpha-glucosidase (unknown origin) using p-NPG as substrate assessed as inhibition constant preincubated with compound followed by substrate addition and measured by absorbance based analysis; set-up: species or system Homo sapiens

Compound	IC50 (Alpha-glucosidase)	Ki [1]
OC[C@H]1O[C@H](OCc2cn(C[C@H]3O[C@@H]4O[C@H]5[C@H](O)[C@@H](O)[C@@H](O[C@H]6[C@H](O)[C@@H](O)[C@@H](O[C@H]7[C@H](O)[C@@H](O)[C@@H](O[C@H]8[C@H](O)[C@@H](O)[C@@H](O[C@H]9[C@H](O)[C@@H](O)[C@@H](O[C@H]%10[C@H](O)[C@@H](O)[C@@H](O[C@H]%11[C@H](O)[C@@H](O)[C@@H](O[C@H]3[C@H](O)[C@H]4O)O[C@@H]%11Cn3cc(CO[C@H]4O[C@H](CO)[C@@H](O)[C@H](O)[C@@H]4O)nn3)O[C@@H]%10Cn3cc(CO[C@H]4O[C@H](CO)[C@@H](O)[C@H](O)[C@@H]4O)nn3)O[C@@H]9Cn3cc(CO[C@H]4O[C@H](CO)[C@@H](O)[C@H](O)[C@@H]4O)nn3)O[C@@H]8Cn3cc(CO[C@H]4O[C@H](CO)[C@@H](O)[C@H](O)[C@@H]4O)nn3)O[C@@H]7Cn3cc(CO[C@H]4O[C@H](CO)[C@@H](O)[C@H](O)[C@@H]4O)nn3)O[C@@H]6Cn3cc(CO[C@H]4O[C@H](CO)[C@@H](O)[C@H](O)[C@@H]4O)nn3)O[C@@H]5Cn3cc(CO[C@H]4O[C@H](CO)[C@@H](O)[C@H](O)[C@@H]4O)nn3)nn2)[C@@H](O)[C@@H](O)[C@@H]1O	32000 nM	
COc1c(C(=O)/C=C/c2ccc(Br)cc2)c(OC)c(C(=O)/C=C/c2ccc(Br)cc2)c(OC)c1C(=O)/C=C/c1ccc(Br)cc1		3.9 nM
